Structures can show the parent of a compound that is named as a salt.
Experiments:
[1] = Stability of crystalline Form I of lorcaserin hydrochloride stored packed for at least 3 months; type: physicochemical; settings: 25° C./60% RH and 40° C./75% RH
Description: The crystalline Form I of lorcaserin hydrochloride having less than 0.5% water as manufactured by the process of the present invention was subjected to stability for at least 3 months at 25° C./60% RH or at about 40° C./75% RH.
In a further aspect, the stable crystalline Form I of lorcaserin hydrochloride can be stored under nitrogen atmosphere and packed in a double polythene bag which is either heat sealed or twisted and tied with a thread (primary packing). The primary packing containing the crystalline Form I of lorcaserin hydrochloride can be kept inside a black color polyethylene bag containing a desiccant (molecular sieves) which is either heat sealed or twisted and tied, and the above double polyethylene bags may further be placed inside a triple laminated bag, optionally containing a desiccant which is either heat sealed or twisted and tied. Finally, the triple laminated bag can be kept inside a closed high density polyethylene (HDPE) container and stored in a controlled environment chamber at 25° C. and/or 40° C.

[2] = cited from earlier work
[3] = 2 Months, LDPE bag closed with a heat seal (Table 1)
[4] = 2 Months, LDPE bag closed with a twist and tie (Table 2)
[5] = 3 Months, LDPE bag closed with a heat seal (Table 1)
[6] = 3 Months, LDPE bag closed with a twist and tie (Table 2)

Compound: C[C@H]1CNCCc2ccc(Cl)cc21.Cl [(R)-8-chloro-1-methyl-2,3,4,5-tetrahydro-1H-3-benzazepine hydrochloride]
- Water (%) ([1]; 1 Month, LDPE bag closed with a heat seal (Table 1), specification Less than 0.5% w/w): 0.31%
- X-Ray Diffraction ([1]; 1 Month, LDPE bag closed with a heat seal (Table 1), specification: should confirm the Form-I): Form I
- Water (%) ([1]; 1 Month, LDPE bag closed with a twist and tie (Table 2), specification Less than 0.5% w/w): 0.31%
- X-Ray Diffraction ([1]; 1 Month, LDPE bag closed with a twist and tie (Table 2), specification: should confirm the Form-I): Form I
- Description ([1]; 1 Month, LDPE bag purged with nitrogen closed with a heat seal (Table 1), specification White to off-white): off-
- Description ([1]; 1 Month, LDPE bag purged with nitrogen closed with a twist and tie (Table 2), specification White to off-white): off-
- Description [1, 3]: off-
- Water (%) [1, 3]: 0.35%
- X-Ray Diffraction [1, 3]: Form I
- Description [1, 4]: off-
- Water (%) [1, 4]: 0.35%
- X-Ray Diffraction [1, 4]: Form I
- Description [1, 5]: off-white
- Water (%) [1, 5]: 0.35%
- X-Ray Diffraction [1, 5]: Form I
- Description [1, 6]: off-white
- Water (%) [1, 6]: 0.35%
- X-Ray Diffraction [1, 6]: Form I
- moisture adsorbed (calculated) ([2]; DVS, between about 40 and about 80% RH): about 3.8%
- relative humidity (RH) above which moisture is readily adsorbed ([2]; DVS): 40-60%
- crystalline form by XRPD after the DVS cycle [2]: conversion to the hemihydrate (Form III)

Compound: C[C@H]1CNCCc2ccc(Cl)cc21 [Form III, (R)-8-chloro-1-methyl-2,3,4,5-tetrahydro-1H-3-benzazepine hydrochloride hemihydrate]
- water adsorbed ([2]; DVS, at 90% RH): less than 0.5%
- crystalline form by XRPD after the DVS cycle [2]: no change in crystalline form

Reference: patent US9714225B2, “Processes for the preparation of lorcaserin” (CADILA HEALTHCARE LIMITED, priority 2013, dated 2017)
